According to PubChem BioAssay AID588650 (The Scripps Research Institute Molecular Screening Center, 2011):

Target: Epidermal growth factor receptor (Homo sapiens) (UniProt P00533)
Test: decrease of p-EGFR levels in colorectal cells – HCT116 cells, chemiluminescent western blot, powder samples, counter-screen for KLF5 inhibitor project, late-stage follow-up (AID 588650)
Conditions: HCT116 phospho-EGFR western blot, 24 h; at 10 µM; hits give high values

Chain of Epidermal growth factor receptor (Homo sapiens) (P00533 whole entry, looked up): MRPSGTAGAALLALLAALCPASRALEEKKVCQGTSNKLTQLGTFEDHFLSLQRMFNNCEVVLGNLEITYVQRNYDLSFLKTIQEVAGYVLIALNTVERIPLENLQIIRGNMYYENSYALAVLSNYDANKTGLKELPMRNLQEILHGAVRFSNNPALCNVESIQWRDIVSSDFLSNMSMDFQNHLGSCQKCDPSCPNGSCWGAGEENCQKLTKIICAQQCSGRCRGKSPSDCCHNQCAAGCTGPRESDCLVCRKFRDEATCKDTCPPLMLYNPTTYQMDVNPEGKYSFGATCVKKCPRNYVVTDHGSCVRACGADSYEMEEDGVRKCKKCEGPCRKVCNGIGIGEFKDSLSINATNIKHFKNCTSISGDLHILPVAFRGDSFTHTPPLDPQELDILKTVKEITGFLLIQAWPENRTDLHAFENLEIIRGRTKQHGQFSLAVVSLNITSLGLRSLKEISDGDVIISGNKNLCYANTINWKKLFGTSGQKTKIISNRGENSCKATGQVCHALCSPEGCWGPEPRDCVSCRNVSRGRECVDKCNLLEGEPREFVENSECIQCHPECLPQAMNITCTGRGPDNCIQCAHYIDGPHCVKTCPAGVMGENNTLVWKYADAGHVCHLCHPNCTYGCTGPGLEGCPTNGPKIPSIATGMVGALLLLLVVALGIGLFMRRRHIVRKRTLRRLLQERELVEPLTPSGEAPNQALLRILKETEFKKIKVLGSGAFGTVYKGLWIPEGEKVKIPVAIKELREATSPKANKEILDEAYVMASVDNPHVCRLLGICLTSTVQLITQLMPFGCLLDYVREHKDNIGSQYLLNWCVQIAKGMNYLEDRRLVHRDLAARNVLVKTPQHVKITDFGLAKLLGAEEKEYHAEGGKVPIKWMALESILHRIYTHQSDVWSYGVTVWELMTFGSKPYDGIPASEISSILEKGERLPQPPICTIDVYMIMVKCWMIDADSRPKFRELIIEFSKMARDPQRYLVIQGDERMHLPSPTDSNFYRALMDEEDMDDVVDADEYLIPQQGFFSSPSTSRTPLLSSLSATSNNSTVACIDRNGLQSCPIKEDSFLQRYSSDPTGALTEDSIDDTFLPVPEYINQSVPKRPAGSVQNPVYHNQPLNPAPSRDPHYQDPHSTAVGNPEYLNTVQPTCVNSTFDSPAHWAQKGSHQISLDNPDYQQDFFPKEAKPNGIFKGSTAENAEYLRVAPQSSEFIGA

inhibition	SMILES
-53.2%	CN(C(=O)CNC(=O)/C=C/c1cccc(Cl)c1)C1CCS(=O)(=O)C1 (stereo not drawn)
-64.9%	CN(C(=O)COC(=O)/C=C/c1cccc([N+](=O)[O-])c1)C1CCS(=O)(=O)C1 (stereo not drawn)
-254%	CN(C(=O)CNC(=O)/C=C/c1cccc(Cl)c1)C1CCS(=O)(=O)CC1
